According to patent publication US10577365B2, “Derivatives of quinoline as inhibitors of DYRK1A and/or DYRK1B kinases” (Felicitex Therapeutics, Inc., priority 2016, dated 2020):
pIC50: −log10 of the molar value. Structures can show the parent of a compound that is named as a salt.

Experiments:
[1] = biological target: T1, DYRK1A (Homo sapiens, UniProt Q13627); assay: DYRK1A in vitro kinase assay (ADP-Glo); assay type: biochemical; conditions: ATP 70 μM (Km), substrate 3 μM, enzyme 2 nM or 0.7 nM, 30 min, rt
T1 construct: purchased Carna Bioscence (Carna Biosciences) 04-130
Protocol: The compounds of the present invention were tested for their inhibitory activity against DYRK1A and DYRK1B kinases once or several times. When tested more than once, the data are reported herein as average value, wherein the average value, also referred to as the mean value, represents the sum of obtained values divided by the number of times tested.
DYRK-inhibitory activity of the compounds of the present invention was tested using the ADP-Glo™ assay as described in the following paragraphs. The procedure for determining the IC50 values with the ADP-Glo™ assay in in vitro kinase assays consists of two parts:
1. Kinase reaction performed under optimized conditions;
2. Detection of ADP as a product of the reaction using ADP-Glo™ system (Promega).
The tested compounds indicated in Table 5 below were dissolved in DMSO, then transferred to the V-bottom PP plate to perform nine serial dilutions (in order to obtain dose-response curves) in 25% DMSO, as indicated in Table 5 below.
The optimized conditions for performing DYRK1A in vitro kinase assay were as follows:
For compound testing, the following protocol was used: two mixes were prepared on ice, Mix 1 containing substrate, ATP and reaction buffer and Mix 2 containing reaction buffer and the kinase. 15 μL per well of Mix 1 was transferred to wells of a 96-well plate. Next, 2.5 μL of the pre-diluted compound to be tested was added to Mix 1, followed by the addition of 12.5 μL of Mix 2. Total reaction volume was 30 μL per well. The experiment was performed in duplicate for each data point being examined. Dose response curve for the positive control was carried out on each assay plate by adding the reference inhibitory compound staurosporine. For each test, three controls were also included: (i) 30 μL of the reaction mixture containing: reaction buffer, ATP, kinase, DMSO without substrate (quasi-positive control); (ii) 30 μL of the reaction mixture containing reaction buffer, substrate, ATP, DMSO without kinase (background control); (iii) 30 μL of the reaction mixture containing reaction buffer, substrate, kinase, ATP, DMSO (vehicle control). Final concentration of DMSO in the reaction was 2%. To detect the ADP amount produced during the kinase reaction, the commercially available kit ADP-Glo™ Kinase Assay (Promega, cat. No # V9103) was used. The protocol used for the detection was based on the Technical Bulletin of the ADP-Glo™ Kinase Assay (Promega) and was adapted to 96-well plate containing 30 μL reaction mixture as explained below.
30 μL of ADP-Glo™ Reagent was added to each well of a 96 well plate containing 30 μL of reaction mixture to terminate the kinase reaction and deplete the remaining ATP. The plate was incubated for 60 minutes on a shaker at rt. 60 μL of Kinase Detection Solution was then added to each well of 96-well plate containing 60 μL of the solution to convert ADP to ATP and to allow the newly synthesized ATP to be measured using a luciferase/luciferin reaction (ratio of kinase reaction volume to ADP Glo™ Reagent volume to Kinase Detection Solution volume was maintained at 1:1:2). The plate was incubated for 40 minutes on a shaker at rt, protected from light. Luminescence was measured in the plate reader, wherein the luminescent signal is proportional to the ADP concentration produced and thus correlates with kinase activity.
After data normalization to controls (complete reaction mix and no-substrate control) and transforming X values (test compound concentrations) using: X=log(X), IC50 values were determined, using the GraphPad Prism 6.0 [log(agonist) vs. normalized response—Variable slope].

[2] = biological target: T2, DYRK1B (Homo sapiens, UniProt Q9Y463); assay: DYRK1B in vitro kinase assay (ADP-Glo); assay type: biochemical; conditions: ADP-Glo assay, ATP 15 μM (Km), substrate 7 μM, enzyme 1 nM or 0.3 nM, 1 h, rt; read-out: DYRK1B IC50
T2 construct: purchased Carna Bioscence (Carna Biosciences) 04-131
Protocol: The compounds of the present invention were tested for their inhibitory activity against DYRK1A and DYRK1B kinases once or several times. When tested more than once, the data are reported herein as average value, wherein the average value, also referred to as the mean value, represents the sum of obtained values divided by the number of times tested. DYRK-inhibitory activity of the compounds of the present invention was tested using the ADP-Glo™ assay as described in the following paragraphs. The procedure for determining the IC50 values with the ADP-Glo™ assay in in vitro kinase assays consists of two parts: […] Kinase reaction performed under optimized conditions; 2. Detection of ADP as a product of the reaction using ADP-Glo™ system (Promega). The tested compounds indicated in Table 5 below were dissolved in DMSO, then transferred to the V-bottom PP plate to perform nine serial dilutions (in order to obtain dose-response curves) in 25% DMSO, as indicated in Table 5 below. The optimized conditions for performing DYRK1B in vitro kinase assay were as follows: [table] For compound testing, the following protocol was used: two mixes were prepared on ice, Mix 1 containing substrate, ATP and reaction buffer and Mix 2 containing reaction buffer and the kinase. 15 μL per well of Mix 1 was transferred to wells of a 96-well plate. […] Total reaction volume was 30 μL per well. The experiment was performed in duplicate for each data point being examined. Dose response curve for the positive control was carried out on each assay plate by adding the reference inhibitory compound staurosporine. For each test, three controls were also included: (i) 30 μL of the reaction mixture containing: reaction buffer, ATP, kinase, DMSO without substrate (quasi-positive control); (ii) 30 μL of the reaction mixture containing reaction buffer, substrate, ATP, DMSO without kinase (background control); (iii) 30 μL of the reaction mixture containing reaction buffer, substrate, kinase, ATP, DMSO (vehicle control). Final concentration of DMSO in the reaction was 2%. To detect the ADP amount produced during the kinase reaction, the commercially available kit ADP-Glo™ Kinase Assay (Promega, cat. No # V9103) was used. The protocol used for the detection was based on the Technical Bulletin of the ADP-Glo™ Kinase Assay (Promega) and was adapted to 96-well plate containing 30 μL reaction mixture as explained below. 30 μL of ADP-Glo™ Reagent was added to each well of a 96 well plate containing 30 μL of reaction mixture to terminate the kinase reaction and deplete the remaining ATP. The plate was incubated for 60 minutes on a shaker at rt. 60 μL of Kinase Detection Solution was then added to each well of 96-well plate containing 60 μL of the solution to convert ADP to ATP and to allow the newly synthesized ATP to be measured using a luciferase/luciferin reaction (ratio of kinase reaction volume to ADP Glo™ Reagent volume to Kinase Detection Solution volume was maintained at 1:1:2). The plate was incubated for 40 minutes on a shaker at rt, protected from light. Luminescence was measured in the plate reader, wherein the luminescent signal is proportional to the ADP concentration produced and thus correlates with kinase activity. After data normalization to controls (complete reaction mix and no-substrate control) and transforming X values (test compound concentrations) using: X=log(X), IC50 values were determined, using the GraphPad Prism 6.0 [log(agonist) vs. normalized response—Variable slope].

T2 sequence (Q9Y463 whole entry): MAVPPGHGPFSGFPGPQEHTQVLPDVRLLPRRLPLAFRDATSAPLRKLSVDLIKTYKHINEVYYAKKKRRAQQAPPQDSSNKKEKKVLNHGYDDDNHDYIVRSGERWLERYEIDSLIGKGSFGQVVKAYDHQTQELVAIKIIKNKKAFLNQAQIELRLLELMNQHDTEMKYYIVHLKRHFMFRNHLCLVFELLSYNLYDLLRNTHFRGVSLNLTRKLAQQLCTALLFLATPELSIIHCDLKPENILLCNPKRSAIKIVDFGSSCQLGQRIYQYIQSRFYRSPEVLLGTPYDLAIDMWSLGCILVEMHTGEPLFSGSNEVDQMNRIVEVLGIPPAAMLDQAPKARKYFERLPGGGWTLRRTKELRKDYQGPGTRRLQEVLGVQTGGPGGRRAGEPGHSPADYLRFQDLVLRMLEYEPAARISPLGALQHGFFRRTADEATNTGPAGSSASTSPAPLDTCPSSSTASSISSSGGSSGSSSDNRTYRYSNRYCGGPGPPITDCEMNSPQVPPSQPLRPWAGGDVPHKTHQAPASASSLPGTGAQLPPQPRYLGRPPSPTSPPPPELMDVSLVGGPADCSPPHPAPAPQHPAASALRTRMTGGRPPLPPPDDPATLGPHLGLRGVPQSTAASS

Row | Structure (SMILES) | pIC50 [1] | pIC50 [2]
1 | C=CCCCc1ccnc2ccc(-c3c[nH]c4ncc(CN(C)CC=C)cc34)cc12 [Example 21, Methyl({3-[4-(pent-4-en-1-yl)quinolin-6-yl]-1H-pyrrolo[2,3-b]pyridin-5-yl}methyl)(prop-2-en-1-yl)amine] | 7.00 to 8.00 | > 8.00
2 | CNC(=O)c1cnc2[nH]cc(-c3ccc4nccc(-c5cccnc5)c4c3)c2c1 [Example 22, N-Methyl-3-[4-(pyridin-3-yl)quinolin-6-yl]-1H-pyrrolo[2,3-b]pyridine-5-carboxamide] | > 8.00 | > 8.00
3 | CNC(=O)c1cnc2[nH]cc(-c3ccc4nccc(N5CCOCC5)c4c3)c2c1 [Example 23, N-Methyl-3-[4-(morpholin-4-yl)quinolin-6-yl]-1H-pyrrolo[2,3-b]pyridine-5-carboxamide] | > 8.00 | > 8.00
4 | CNC(=O)c1cnc2[nH]cc(-c3ccc4nccc(Cl)c4c3)c2c1 [Example 24, 3-(4-Chloroquinolin-6-yl)-N-methyl-1H-pyrrolo[2,3-b]pyridine-5-carboxamide] | > 8.00 | > 8.00
5 | CNC(=O)c1cnc2[nH]cc(-c3ccc4ncccc4c3)c2c1 [Example 25, N-Methyl-3-(quinolin-6-yl)-1H-pyrrolo[2,3-b]pyridine-5-carboxamide] | > 8.00 | > 8.00
6 | C=CCN(C)C(=O)c1cnc2[nH]cc(-c3cc(OC)c4ncccc4c3)c2c1 [Example 26, 3-(8-Methoxyquinolin-6-yl)-N-methyl-N-(prop-2-en-1-yl)-1H-pyrrolo[2,3-b]pyridine-5-carboxamide] | < 7.00 | < 7.00
7 | C=CCN(C)C(=O)c1cnc2[nH]cc(-c3cc(F)c4ncccc4c3)c2c1 [Example 27, 3-(8-Fluoroquinolin-6-yl)-N-methyl-N-(prop-2-en-1-yl)-1H-pyrrolo[2,3-b]pyridine-5-carboxamide] | > 8.00 | > 8.00
8 | C=CCN(C)C(=O)c1cnc2[nH]cc(-c3cc(Cl)c4ncccc4c3)c2c1 [Example 28, 3-(8-Chloroquinolin-6-yl)-N-methyl-N-(prop-2-en-1-yl)-1H-pyrrolo[2,3-b]pyridine-5-carboxamide] | 7.00 to 8.00 | > 8.00
9 | CNC(=O)c1cnc2[nH]cc(-c3cc(F)c4ncccc4c3)c2c1 [Example 30, 3-(8-Fluoroquinolin-6-yl)-N-methyl-1H-pyrrolo[2,3-b]pyridine-5-carboxamide] | > 8.00 | > 8.00
10 | O=C(NCc1ccccc1)c1cnc2[nH]cc(-c3cc(F)c4ncccc4c3)c2c1 [Example 31, N-Benzyl-3-(8-fluoroquinolin-6-yl)-1H-pyrrolo[2,3-b]pyridine-5-carboxamide] | > 8.00 | > 8.00
11 | O=C(NCc1ccccc1)c1cnc2[nH]cc(-c3cc(Cl)c4ncccc4c3)c2c1 [Example 32, N-Benzyl-3-(8-chloroquinolin-6-yl)-1H-pyrrolo[2,3-b]pyridine-5-carboxamide] | 7.00 to 8.00 | > 8.00
12 | NC(=O)c1cnc2[nH]cc(-c3cc(F)c4ncccc4c3)c2c1 [Example 33, 3-(8-Fluoroquinolin-6-yl)-1H-pyrrolo[2,3-b]pyridine-5-carboxamide] | > 8.00 | > 8.00
13 | NCCCNC(=O)c1cnc2[nH]cc(-c3cc(Cl)c4ncccc4c3)c2c1 [Example 34, N-(3-Aminopropyl)-3-(8-chloroquinolin-6-yl)-1H-pyrrolo[2,3-b]pyridine-5-carboxamide hydrochloride] | > 8.00 | > 8.00
14 | NCCCNC(=O)c1cnc2[nH]cc(-c3cc(F)c4ncccc4c3)c2c1 [Example 35, N-(3-Aminopropyl)-3-(8-fluoroquinolin-6-yl)-1H-pyrrolo[2,3-b]pyridine-5-carboxamide hydrochloride] | > 8.00 | > 8.00
15 | O=C(NCc1ccccc1)c1cnc2[nH]cc(-c3cc(F)c4nccc(-c5cccnc5)c4c3)c2c1 [Example 36, N-Benzyl-3-[8-fluoro-4-(pyridin-3-yl)quinolin-6-yl]-1H-pyrrolo[2,3-b]pyridine-5-carboxamide] | 7.00 to 8.00 | > 8.00
16 | NCCCNC(=O)c1cnc2[nH]cc(-c3cc(F)c4nccc(-c5cccnc5)c4c3)c2c1 [Example 37, N-(3-Aminopropyl)-3-[8-fluoro-4-(pyridin-3-yl)quinolin-6-yl]-1H-pyrrolo[2,3-b]pyridine-5-carboxamide hydrochloride] | > 8.00 | > 8.00
17 | C=CCN(C)C(=O)c1cnc2[nH]cc(-c3cc(F)c4nccc(-c5cccnc5)c4c3)c2c1 [Example 38, 3-[8-Fluoro-4-(pyridin-3-yl)quinolin-6-yl]-N-methyl-N-(prop-2-en-1-yl)-1H-pyrrolo[2,3-b]pyridine-5-carboxamide] | 7.00 to 8.00 | > 8.00
18 | CNC(=O)c1cnc2[nH]cc(-c3cc(F)c4nccc(-c5cccnc5)c4c3)c2c1 [Example 39, 3-[8-Fluoro-4-(pyridin-3-yl)quinolin-6-yl]-N-methyl-1H-pyrrolo[2,3-b]pyridine-5-carboxamide] | > 8.00 | > 8.00
19 | CNC(=O)c1cnc2[nH]cc(-c3cc(F)c4nccc(CCc5ccccc5)c4c3)c2c1 [Example 40, 3-[8-Fluoro-4-(2-phenylethyl)quinolin-6-yl]-N-methyl-1H-pyrrolo[2,3-b]pyridine-5-carboxamide] | > 8.00 | > 8.00
